Earlier results in US20130071408A1, “Methods for Diagnosis and Treatment of Non-Insulin Dependent Diabetes Mellitus” (priority 2010, published 2013).
pIC50: −log10 of the molar value.

Biological target: CD44 and HA (Homo sapiens, UniProt P16070)
Conditions: cell-based assay; read-out: IC50 value, inhibits the binding of CD44 and HA

Sequence of CD44 and HA (P16070 21-742): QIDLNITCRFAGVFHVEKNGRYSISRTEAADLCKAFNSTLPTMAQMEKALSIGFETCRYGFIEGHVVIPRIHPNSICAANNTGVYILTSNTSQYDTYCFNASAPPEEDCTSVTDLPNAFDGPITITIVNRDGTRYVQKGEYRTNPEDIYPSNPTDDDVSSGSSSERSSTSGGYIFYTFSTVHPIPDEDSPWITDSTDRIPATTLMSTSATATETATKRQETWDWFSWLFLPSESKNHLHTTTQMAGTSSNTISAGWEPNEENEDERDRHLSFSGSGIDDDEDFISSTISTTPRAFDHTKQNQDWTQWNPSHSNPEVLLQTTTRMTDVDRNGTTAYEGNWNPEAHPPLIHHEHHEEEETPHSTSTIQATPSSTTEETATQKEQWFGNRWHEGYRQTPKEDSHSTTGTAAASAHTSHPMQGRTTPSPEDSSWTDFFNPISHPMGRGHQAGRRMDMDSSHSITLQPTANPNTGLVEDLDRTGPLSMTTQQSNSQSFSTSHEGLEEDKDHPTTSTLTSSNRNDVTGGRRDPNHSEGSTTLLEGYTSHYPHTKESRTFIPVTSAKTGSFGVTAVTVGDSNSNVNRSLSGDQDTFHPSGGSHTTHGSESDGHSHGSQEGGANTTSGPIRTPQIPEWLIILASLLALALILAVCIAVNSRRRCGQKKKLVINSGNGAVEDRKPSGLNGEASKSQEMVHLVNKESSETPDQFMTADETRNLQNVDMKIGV

pIC50: 4.63
SMILES: CCCCCCC(O)CCCC(CCCCCCCCCCCCCC(O)C(=O)O)OC1OCC(O)C(O)C1OC1OCC(OC(C)=O)C(O)C1OC1OC(COC(C)=O)C(O)C(O)C1O (stereo not shown) [F-19848 A]
